# Data published in patent EP4741383A1, “COMPOUND AND USE THEREOF AS ANTI-CANCER DRUG” (Tyligand Bioscience (Shanghai) Limited, priority 2023, dated 2025).
# How the values were obtained:
# CYP2B6 = biological target: T1, CYP2B6 (Homo sapiens, UniProt P20813); test: CYP450 inhibition in human liver microsomes, CYP2B6; type: in vitro ADME; settings: pH 7.4, read-out: % CYP inhibition @ 10 µM 2B6
# T1 construct: tissue Corning or Xenotech; host or cells: human liver microsomes
# T1 sequence (P20813 1-491): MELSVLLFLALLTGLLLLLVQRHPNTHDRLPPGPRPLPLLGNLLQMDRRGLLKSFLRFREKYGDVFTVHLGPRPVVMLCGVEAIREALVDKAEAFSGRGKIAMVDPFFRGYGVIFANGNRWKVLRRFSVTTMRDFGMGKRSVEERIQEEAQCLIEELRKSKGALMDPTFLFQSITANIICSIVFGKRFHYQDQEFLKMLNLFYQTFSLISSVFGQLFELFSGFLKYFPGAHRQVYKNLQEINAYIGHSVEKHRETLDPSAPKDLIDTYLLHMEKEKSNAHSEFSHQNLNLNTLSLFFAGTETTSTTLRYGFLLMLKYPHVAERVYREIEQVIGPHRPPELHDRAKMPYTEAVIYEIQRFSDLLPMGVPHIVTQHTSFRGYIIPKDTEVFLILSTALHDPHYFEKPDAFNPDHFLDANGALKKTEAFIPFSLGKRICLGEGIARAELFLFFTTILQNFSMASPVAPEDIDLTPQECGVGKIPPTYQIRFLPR
# Text: (§1) According to standard methods in the field for the study of cytochrome P450 enzyme systems, such as the method described in Kerns, Edward H. and Di Li et al., Drug-like Properties: Concepts, Structure Design and Methods: from ADME to Toxicity Optimization (2008), San Diego, Academic Press, and Lin, Tong et al., In Vitro Assessment of Cytochrome P450 Inhibition: Strategies for Increasing LC/MS-Based Assay Throughput Using a One-Point IC50 Method and Multiplexing High-Performance Liquid Chromatography (J. Pharm. Sci. 2007, 96 (9), 2485). The inhibitory effect of the disclosed compounds on the cytochrome P450 enzyme system was similarly examined below.
# (§2) Human liver microsomes were purchased from Corning or Xenotech. The test compounds were evaluated by detecting the metabolism of substrates for different Cyp450 isoforms by human liver microsomes.
# (§3) 0.1 M potassium phosphate buffer (K-buffer, pH 7.4) was pre-warmed.
# (§4) 100 mM K-buffer was prepared by mixing 9.5 mL of stock solution A (1 M potassium dihydrogen phosphate, prepared by dissolving 136.5 g of potassium dihydrogen phosphate in 1 L of Milli-Q water) with 40.5 mL of stock solution B (1 M potassium hydrogen phosphate, prepared by dissolving 174.2 g of potassium hydrogen phosphate in 1 L of Milli-Q water). The total volume was adjusted to 500 mL with Milli-Q water, and the buffer was titrated to pH 7.4 using KOH or H3PO4.
# (§5) Test compound solution and specific inhibitor solution (400× dilution) were prepared in a 96-well plate. For the test compound, 8 µL of 10 mM test compound was transferred into 12 µL of ACN. For specific inhibitors of CYP1A2, CYP2C9, and CYP2D6: 12 µL of 1 mM α-naphthoflavone, 10 µL of 40 mM sulfaphenazole, 10 µL of 10 mM quinidine, and 8 µL of DMSO were mixed. For specific inhibitors of CYP3A4, CYP2B6, CYP2C8, and CYP2C19: 8 µL of DMSO stock solution was added to 12 µL of ACN.
# (§6) A 4× diluted NADPH solution was prepared by dissolving 66.7 mg of NADPH in 10 mL of 0.1 M K-buffer (pH 7.4). […]
# CYP2C8 = biological target: T2, CYP2C8 (Homo sapiens, UniProt P10632); test: CYP450 inhibition in human liver microsomes, CYP2C8; type: in vitro ADME; settings: pH 7.4, read-out: % CYP inhibition @ 10 µM 2C8
# T2 construct: tissue Corning or Xenotech; host or cells: human liver microsomes
# T2 sequence (P10632 1-490): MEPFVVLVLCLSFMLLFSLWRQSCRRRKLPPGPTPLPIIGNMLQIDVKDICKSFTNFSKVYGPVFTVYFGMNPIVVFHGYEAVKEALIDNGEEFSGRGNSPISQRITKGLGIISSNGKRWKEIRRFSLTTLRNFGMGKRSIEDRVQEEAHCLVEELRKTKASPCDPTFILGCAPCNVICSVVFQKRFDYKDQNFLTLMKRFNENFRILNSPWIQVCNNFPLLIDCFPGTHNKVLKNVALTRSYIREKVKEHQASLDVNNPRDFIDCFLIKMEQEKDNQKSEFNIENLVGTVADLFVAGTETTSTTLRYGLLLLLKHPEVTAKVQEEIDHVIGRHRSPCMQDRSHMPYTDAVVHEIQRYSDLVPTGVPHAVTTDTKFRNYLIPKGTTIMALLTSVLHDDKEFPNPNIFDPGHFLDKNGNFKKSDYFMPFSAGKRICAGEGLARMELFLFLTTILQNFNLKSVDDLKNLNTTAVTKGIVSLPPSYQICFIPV
# Text: as §1, §2, §3, §4, §5, §6
SMILES,"inhibition at 10 min, 10 µM (CYP2B6) [%]","inhibition at 10 min, 10 µM (CYP2C8) [%]"
O=C(Nc1ccc(-c2cc3cc(F)c(-c4nnn[nH]4)cc3n2C2CCC2)cc1)C(=O)Nc1ccc(N2CCC3(CCOC3)CC2)cc1 [Example 67],15.3,39.2
O=C(Nc1ccc(-c2cc3cc(F)c(-c4nnn[nH]4)cc3n2C2CCC2)cc1)C(=O)Nc1ccc(N2CCC(CO)CC2)cc1 [Example 23],1.32,43.8
CC1(n2c(-c3ccc(NC(=O)C(=O)Nc4ccc(N5CCC6(CCOC6)CC5)cc4)cc3)cc3cc(F)c(-c4nnn[nH]4)cc32)CCC1 [Example 68],7.06,42.1
